Test system: mini-explants from the dermoepidermal junction of the hoof
Test: In vitro study of hoof laminar mini-explants pre-incubated with tirilazad, then Bothrops alternatus venom, as a model for laminitis; histopathology (H-E, PAS)
Format: cell-based
Method: An in vitro study was conducted to analyze the protective effects of tirilazad mesylate on cellular degeneration as a result of Bothrops alternatus snake venom as a model for laminitis. Explant tissue samples were obtained from the dermoepidermal junction of the hoof of the right forelimb under nervous system block without the need for euthanasia.
Under sterile conditions, laminar cuts (mini-explants) were made of each explant and the tissue washed with physiological solution. The mini-explants were pre-incubated for 5 hours with tirilazad and then for 24 hours with Bothrops venom. Culture medium was as follows: Dulbecco's […] (DMEM, GIBCO-Invitrogen) with 10% heat-inactivated fetal bovine serum (FBS, GIBCO-Invitrogen), L-Glutamine (29.2 mg/mL), Penicillin (10,000 units/mL), and Streptomycin (10,000 μg/mL, GIBCO-Invitrogen) as antibiotics.
Histopathology: Tissues were processed with classical histological techniques, e.g., cutting by microtome (Minot) and stained with hematoxylin-eosin (H-E) and Periodic Acid Schiff (PAS) stains.

[1] = Tirilazad 1 μM (5 hours pre-incubation) + venom 75 μg/ml (24 hours), listed as tirilazad
[2] = Tirilazad 1 μM, no venom, listed as tirilazad
[3] = Tirilazad 3 μM (5 hours pre-incubation) + venom 75 μg/ml (24 hours)
[4] = Tirilazad 3 μM, no venom, listed as tirilazad
[5] = Tirilazad 10 μM (5 hours pre-incubation) + venom 75 μg/ml (24 hours), listed as tirilazad
[6] = Tirilazad 10 μM, no venom, listed as tirilazad
[7] = Tirilazad 20 μM (5 hours pre-incubation) + venom 75 μg/ml (24 hours)

## C[C@@H]1C[C@H]2[C@@H]3CCC4=CC(=O)C=C[C@]4(C)C3=CC[C@]2(C)[C@H]1C(=O)CN1CCN(c2cc(N3CCCC3)nc(N3CCCC3)n2)CC1 [Tirilazad, 16α-methyl-21-[4-[2,6-bis(1-pyrrolidinyl)-4-pyrimidinyl]-1-piperazinyl]pregna-1,4,9(11)-triene-3,20-dione]
Tirilazad 1 μM (5 hours pre-incubation) + venom 75 μg/ml (24 hours)
  Separation of Basement Membrane: No
[1]
  Cell Nuclei: intense presence of altered epidermal cells
  Pyknosis or Karyopyknosis: with nuclear pyknosis
  Separation of Basement Membrane: did not show separation of the basement membrane
Tirilazad 1 μM, no venom
  Pyknosis or Karyopyknosis: No
  Separation of Basement Membrane: No
[2]
  Cell Nuclei: epidermal cells were normal and showed preserved cytoplasmic and nuclear structure
  Separation of Basement Membrane: did not show separation of the basement membrane
[3]
  Cell Nuclei: intense presence of altered epidermal cells
  Pyknosis or Karyopyknosis: nuclear pyknosis predominating
  Separation of Basement Membrane: slight separation of the basement membrane
Tirilazad 3 μM, no venom
  Separation of Basement Membrane: No
[4]
  Cell Nuclei: slight epidermal cytoplasmic and nuclear alteration
  Separation of Basement Membrane: did not show separation of the basement membrane
Tirilazad 10 μM (5 hours pre-incubation) + venom 75 μg/ml (24 hours)
  Separation of Basement Membrane: No
[5]
  Cell Nuclei: Moderate presence of altered epidermal cells
  Pyknosis or Karyopyknosis: moderate nuclear pyknosis
  Separation of Basement Membrane: did not show separation of the basement membrane
Tirilazad 10 μM, no venom
  Pyknosis or Karyopyknosis: No
  Separation of Basement Membrane: No
[6]
  Cell Nuclei: epidermal cells were normal and showed preserved cytoplasmic and nuclear structure
  Separation of Basement Membrane: did not show separation of the basement membrane
[7]
  Cell Nuclei: intense presence of altered epidermal cells
  Pyknosis or Karyopyknosis: intense nuclear pyknosis
  Separation of Basement Membrane: intense separation of the basement membrane
Tirilazad 20 μM, no venom
  Cell Nuclei: epidermal cells were normal and showed preserved cytoplasmic and nuclear structure
  Pyknosis or Karyopyknosis: No
  Separation of Basement Membrane: intense separation of the basement membrane
Overall conclusion of the explant study
  effect on cellular structure in hoof tissue: provides a protective and/or therapeutic effect

Reference: patent US20250064834A1, “COMPOSITIONS AND METHODS FOR TREATMENT AND PREVENTION OF DISEASES UTILIZING TIRILAZAD SALTS” (priority 2022, published 2025)
